Where “and” joins values, the source holds several entries; their conditions need not be identical. Identical values can stand only once.
How the values were obtained:
[1] = molecular target: MpLBD, recombinant M. persicae ecdysone receptor (Myzus persicae, UniProt A3EZJ9); test: manual radioligand-based competitive inhibition assay ([3H]ponasterone A), MpLBD; format: binding; conditions: for ability to compete with [3H]ponasterone A / bind to MpLBD (in words): radioligand-based assay
Description: The ability of inokosterone and fluorescent conjugates thereof to bind to recombinant M. persicae ecdysone receptor was assessed using the conventional radioligand binding assay in a competetive inhibition format (adapted from Koelle et al., 1991).
These procedures were performed manually, as follows. Assays were performed in EcR40 buffer [25 mM Hepes, 40 mM KCl, 10% glycerol, 1 mM sodium EDTA, 3 mM sodium azide] containing 0.5 mg/ml bovine serum albumin (BSA). An extract containing recombinant M. persicae edcdysone receptor, MpLBD, was prepared as described above and diluted in EcR40 buffer containing 0.5 mg/ml BSA to a concentration that generated filter counts around 10 000 cpm when the assay was done in the absence of competing ligands. […] Assays were set up to contain different final concentrations of fluorescent ecdysteroid by including the appropriate volumes of the relevant stock solutions. […] Each incubation was performed in a final volume of […] at room temperature (22° C.) for 90 min, whereupon it was held on ice until the filter adsorption/wash steps could be performed. Three 140 μl aliquots from each completed incubation were applied to glass microfibre filters (GF/C 24 mm diameter, Whatman, Cat. No. 1822024); i.e., every incubation generated three filters, each of which had been wet using 140 μl of the incubation mixture. After exposure to the liquid for 30 sec at room temperature, the wet filter was transferred to a vacuum sinter apparatus (Pyrex Filter Holder, Millipore Corp., Cat. No. XX1002500) and washed rapidly. Washing was done using 2×5 ml of ice-cold EcR40 buffer, intersperced with 3×0.5 ml buffer applied around the circumference of the filter to ensure that its edges were thoroughly rinsed. The damp filter was then transferred to a scintillation vial. When all the filters had been thus processed, 7 ml Packard InstaGel Plus scintillant was added to each scintillation vial. The sealed vials were vortexed and then incubated at room temperature for at least 2 h, during which time the filters became transparent. The vials were then scintillation counted (1 min per filter, tritium program, Packard TriCarb 2100TR scintillation counter). Datapoints were reported as the mean cpm value ±SEM for the three replicate filters arising from each incubation.
The inhibitor concentration at this midpoint was deemed to be the IC50 value for the inhibitor.

LcLBD = test: FP titration of MB4628 with LcLBD; format: binding, Lucilia cuprina; conditions: 36 nM MB4628, no CHAPS
Description: (§1) The standard FP assay buffer was 50 mM sodium phosphate, 100 mM NaCl, pH 7.4, containing 0.5 mg/ml bovine serum albumin. When required, preparative pipetting steps (such as dilution series) were typically done in conventional V-bottomed 96-well microplates (e.g. V-bottomed polypropylene, Greiner Bio-One, Cat. No. 651201). The assays themselves were set up in opaque black flat-bottomed 96-well plates designed for fluorescence measurements (e.g. Nunc, Cat. No. 237108). The final volume of all assays was 250 μl. The FP plate-reader was a POLARstar Optima (Cat. No. 413-201, BMG Labtechnologies, Offenburg, Germany) with fluorescence polarization optics (installed according to the manufacturer's instructions) and operated by FLUOstar Optima software in Plate Mode (Polarization). Excitation was done at 485 nm (filter 485) and emission was detected at 520 nm (filter 520p). The standard instrument setup involved a 3 sec/3 mm shake for the plate prior to commencing reading; readings used 200 flashes/assay. […]
(§2) A 250 μl sample of 30 nM fluorescein in 50 mM sodium phosphate, 100 mM NaCl, pH 7.4, was known to have a polarization value of 35 mP and was used to calibrate the FP plate-reader. […] Thereafter, at the commencement of each experimental session, the FP plate-reader was adjusted to give a reading of 100 mP for a 250 μl sample of 36 nM MB4628 in standard FP assay buffer. […]

BtLBD [2] = molecular target: T1, BtLBD (Bemisia tabaci, UniProt A0A142K0N3); test: FP titration of MB4628 with BtLBD; format: binding; conditions: for Kd: 36 nM MB4628
Description: (§3) The standard FP assay buffer was 50 mM sodium phosphate, 100 mM NaCl, pH 7.4, containing 0.5 mg/ml bovine serum albumin. When required, preparative pipetting steps (such as dilution series) were typically done in conventional V-bottomed 96-well microplates (e.g. V-bottomed polypropylene, Greiner Bio-One, Cat. No. 651201). The assays themselves were set up in opaque black flat-bottomed 96-well plates designed for fluorescence measurements (e.g. Nunc, Cat. No. 237108). The final volume of all assays was 250 μl. The FP plate-reader was a POLARstar Optima (Cat. No. 413-201, BMG Labtechnologies, Offenburg, Germany) with fluorescence polarization optics (installed according to the manufacturer's instructions) and operated by FLUOstar Optima software in Plate Mode (Polarization). Excitation was done at 485 nm (filter 485) and emission was detected at 520 nm (filter 520p). The standard instrument setup involved a 3 sec/3 mm shake for the plate prior to commencing reading; readings used 200 flashes/assay. Gain values were typically around 3000 for each channel, with a K-factor close or equal to 1.0.
(§4) A 250 μl sample of 30 nM fluorescein in 50 mM sodium phosphate, 100 mM NaCl, pH 7.4, was known to have a polarization value of 35 mP and was used to calibrate the FP plate-reader.
Receptor LBD titrations involved mixing a small volume (e.g. 2.5 μl) of diluted receptor LBD heterodimer stock with a larger volume (e.g. 247.5 μl) of standard FP assay buffer containing 36 nM MB4628. Where indicated, CHAPS was present at a final concentration of 2 mM. Receptor dilutions were typically arranged to cover a wide concentration range, e.g. 0.005-50 nM functional receptor. The assay mixtures were allowed to reach equilibrium, typically by incubating overnight at 4° C. and then equilibrating at room temperature (20° C.) for 2-4 h before reading the mP values. When plotting the data, smooth curves were drawn for the FP titrations using a Flexicurve; these represent a more realistic fit to the data than the linear point-to-point plots shown (for convenience of printing) in FIG. 3.
(§5) The inhibitor concentration at this midpoint was deemed to be the IC50 value for the inhibitor. IC50 values were converted to Ki values using the Cheng-Prusoff equation (Cheng & Prusoff, 1973), as follows: Ki=IC50/(1+([MB4628]tot/Kd)) where [MB-4628]tot is the total concentration of MB4628 in the assay, and Kd is the dissociation constant for MB4628 with the relevant receptor under the conditions of the assay. The Kd values for use in this equation were calculated from the basic FP titration curves (FIG. 3) using the knowledge that the receptor concentration at the titration midpoint is the value at which the receptor is half-saturated with MB4628. The Kd is the free MB4628 concentration at this point, and must therefore be: Kd=[MB4628]tot−([receptor]midpoint)/2
The effect of omitting CHAPS from BtLBD competitive inhibition assays was tested directly. Thus, in a BtLBD experiment that departed from standard procedure, 10 nM functional BtLBD was incubated with 36 nM MB4628 and increasing concentrations of non-fluorescent ecdysteroids, but without CHAPS.

MpLBD [3] = molecular target: T2, MpLBD (Myzus persicae, UniProt A3EZJ9); test: FP titration of MB4628 with MpLBD; format: binding
T2 sequence (A3EZJ9 70-308): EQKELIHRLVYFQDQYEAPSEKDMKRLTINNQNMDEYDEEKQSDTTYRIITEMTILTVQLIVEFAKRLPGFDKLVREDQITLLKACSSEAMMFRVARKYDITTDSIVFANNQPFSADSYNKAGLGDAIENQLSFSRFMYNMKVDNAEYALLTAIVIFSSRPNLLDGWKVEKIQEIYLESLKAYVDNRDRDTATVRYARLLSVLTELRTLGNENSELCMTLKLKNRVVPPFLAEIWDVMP
T2 sequence (A3EZK0 32-259 partner): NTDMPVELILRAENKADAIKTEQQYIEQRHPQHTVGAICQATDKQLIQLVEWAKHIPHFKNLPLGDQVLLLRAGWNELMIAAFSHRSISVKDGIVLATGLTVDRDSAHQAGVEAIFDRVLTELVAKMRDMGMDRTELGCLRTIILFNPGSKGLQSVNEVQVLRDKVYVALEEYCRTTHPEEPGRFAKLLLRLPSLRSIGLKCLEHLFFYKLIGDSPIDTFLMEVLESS
Description: as §3, §4
Receptor LBD titrations involved mixing a small volume (e.g. 2.5 μl) of diluted receptor LBD heterodimer stock with a larger volume (e.g. 247.5 μl) of standard FP assay buffer containing 36 nM MB4628. Where indicated, CHAPS was present at a final concentration of 2 mM. […] The assay mixtures were allowed to reach equilibrium, typically by incubating overnight at 4° C. and then equilibrating at room temperature (20° C.) for 2-4 h before reading the mP values. […]
The inhibitor concentration at this midpoint was deemed to be the IC50 value for the inhibitor. […] The Kd values for use in this equation were calculated from the basic FP titration curves (FIG. 3) using the knowledge that the receptor concentration at the titration midpoint is the value at which the receptor is half-saturated with MB4628. […]

HaLBD = test: FP titration of MB4628 with HaLBD; format: binding, Helicoverpa armigera; conditions: 36 nM MB4628, no CHAPS
Description: as §1, §2

MpLBD [4] = molecular target: T2, MpLBD; test: miniaturized automated radioligand-based competition assay, MpLBD; format: binding; conditions: 1.3 nM [3H]ponasterone A, no CHAPS, read-out: Ki from radioligand-based MpLBD assay
Description: (§6) Subsequently, a miniaturized and automated version of the radioligand-based competition assay was used with MpLBD and BtLBD to obtain Ki values for the non-radioactive, non-fluorescent ecdysteroids that would later be used to validate the competitive inhibition format of the FP assay. While the concept of the assay was unchanged from that described above, some aspects of its execution were different. […] The mixtures were again allowed to reach equilibrium, but this time for 4 h at room temperature. The MpLBD was then captured on a 96-filter array (Unifilter-96 GF/C, Packard, Cat. No. 6005174) and rinsed using the wash tool and vacuum block of the Biomek 2000. The back of each filter-plate was then manually sealed using a sheet of Packard BackSeal, and 25 μl Packard MicroScint-20 scintillation fluid was dispensed into each well. The top of each plate was sealed with Packard TopSeal-A and the filters were allowed to solvate overnight. […] Since the amount of bound radioactivity was at most 28% of the total present, no additional corrections for ligand depletion were applied.

BtLBD [5] = molecular target: T1, BtLBD; test: miniaturized automated radioligand-based competition assay, BtLBD; format: binding; conditions: 1.3 nM [3H]ponasterone A, no CHAPS, read-out: Ki from radioligand-based BtLBD assay
Description: as §6

MpLBD [6] = molecular target: T2, MpLBD; test: FP competitive inhibition assay with MB4628 tracer, MpLBD; format: binding; conditions: 5 nM functional MpLBD, 36 nM MB4628, no CHAPS, Cheng-Prusoff; read-out: FP-derived Ki, MpLBD
Description: (§7) For competitive inhibition assays, each well contained standard FP assay buffer containing 36 nM MB4628 and either 5 nM functional MpLBD or 6 nM functional BtLBD. The BtLBD assays, but not the MpLBD ones, were routinely done in the presence of 2 mM CHAPS. The final volume of all assays were 250 μl.
as §5

BtLBD [7] = molecular target: T1, BtLBD; test: FP competitive inhibition assay with MB4628 tracer, BtLBD; format: binding; conditions: 6 nM functional BtLBD, 36 nM MB4628, 2 mM CHAPS, Cheng-Prusoff; read-out: FP-derived Ki, BtLBD
Description: as §7, §5

## CCN(CC)c1ccc2cc(NC(=O)OCC(C)CCC(O)C(C)(O)C3CCC4(O)C5=CC(=O)C6CC(O)C(O)CC6(C)C5CCC34C)c(=O)oc2c1 (stereo not shown) [MB4592]
[1]
  Ki: 20 nM
  ability to compete with [3H]ponasterone A / bind to MpLBD (in words): unimpaired

## CC(CCC(O)C(C)(O)C1CCC2(O)C3=CC(=O)C4CC(O)C(O)CC4(C)C3CCC12C)COC(=S)Nc1ccc2c(c1)C(=O)OC21c2ccc(O)cc2Oc2cc(O)ccc21 (stereo not shown) [MB4628]
[1]
  Ki: 40 nM
  ability to compete with [3H]ponasterone A / bind to MpLBD (in words): unimpaired
LcLBD
  FP titration curve midpoint, LcLBD: 2.5 nM functional receptor
  mPmax, LcLBD: 220 mP
BtLBD [2]; 36 nM MB4628, 2 mM CHAPS, FIG. 3B experiment
  FP titration midpoint, BtLBD, 2 mM CHAPS: 1.5 nM functional BtLBD
BtLBD [2]; 36 nM MB4628, CHAPS-free, FIG. 3B experiment
  FP titration midpoint, BtLBD, CHAPS-free: 4.5 nM
BtLBD [2]; 36 nM MB4628, no CHAPS
  mPmax, BtLBD: 210-260 mP
BtLBD [2]; 36 nM MB4628, no CHAPS (FIG. 3A)
  FP titration curve midpoint, BtLBD: 1 to 5 nM functional receptor
BtLBD [2]; Kd for MB4628, BtLBD without CHAPS, without CHAPS
  Kd: 34.7 nM
BtLBD [2]; Kd for MB4628 from FP titration curve, BtLBD, with 2 mM CHAPS
  Kd: 35.3 nM
MpLBD [3]; 36 nM MB4628, no CHAPS
  FP titration curve midpoint, MpLBD: 1.1-1.8 nM functional receptor
  maximum mP value (mPmax), MpLBD: 335 mP
MpLBD [3]; without CHAPS, 36 nM MB4628, read-out: Kd for MB4628 from FP titration curve, MpLBD
  Kd: 35.3 nM
HaLBD
  FP titration curve midpoint, HaLBD: 3.5 nM functional receptor
  mPmax, HaLBD: 230 mP

## CC(C)CC[C@@H](O)[C@](C)(O)[C@H]1CC[C@@]2(O)C3=CC(=O)[C@@H]4C[C@@H](O)[C@@H](O)C[C@]4(C)[C@H]3CC[C@]12C [ponasterone A]
MpLBD [4]
  Ki: 0.28 nM and ~0.3 nM
BtLBD [5]
  Ki: 4.8 nM
MpLBD [6]
  Ki: 1 nM
BtLBD [7]
  Ki: 7.4 nM

## CC(C)CC[C@@H](O)[C@](C)(O)[C@H]1CC[C@@]2(O)C3=CC(=O)[C@]4(O)C[C@@H](O)[C@@H](O)C[C@]4(C)[C@H]3[C@H](O)C[C@]12C [muristerone A]
MpLBD [4]
  Ki: 30 nM
BtLBD [5]
  Ki: 5.3 nM
MpLBD [6]
  Ki: 149 nM
BtLBD [7]
  Ki: 27 nM

From patent US20070292967A1, “Assay for Ligands of the Ecdysone Receptor” (COMMONWEALTH SCIENTIFIC AND INDUSTRIAL RESEARCH OR, priority 2003, published 2007)
